Key:
Assay in all cases: Competitive isoTOP-ABPP in situ (fragment-treated cells)
Type in all cases: cell-based
[1] = molecular target: T1, cysteines in MDA-MB-231 and Ramos cells (Homo sapiens, UniProt Q96CM8); settings: 200 μM, insitu
T1 sequence (Q96CM8 42-615): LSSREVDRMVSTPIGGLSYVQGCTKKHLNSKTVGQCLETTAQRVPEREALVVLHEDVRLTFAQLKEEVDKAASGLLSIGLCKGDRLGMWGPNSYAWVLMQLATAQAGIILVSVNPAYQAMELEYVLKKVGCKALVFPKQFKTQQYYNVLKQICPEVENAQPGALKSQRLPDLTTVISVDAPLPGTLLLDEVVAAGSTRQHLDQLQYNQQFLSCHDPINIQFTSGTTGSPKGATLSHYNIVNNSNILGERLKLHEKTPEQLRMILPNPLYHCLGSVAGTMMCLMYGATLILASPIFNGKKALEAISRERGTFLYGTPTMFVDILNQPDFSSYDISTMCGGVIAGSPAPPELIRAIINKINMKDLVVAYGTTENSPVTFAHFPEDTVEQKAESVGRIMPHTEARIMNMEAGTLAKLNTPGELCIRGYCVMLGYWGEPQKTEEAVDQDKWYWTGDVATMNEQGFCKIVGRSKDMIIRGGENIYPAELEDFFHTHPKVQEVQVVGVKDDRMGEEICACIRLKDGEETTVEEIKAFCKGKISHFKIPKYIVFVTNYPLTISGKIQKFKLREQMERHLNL

[2] = molecular target: cysteines in MDA-MB-231 and Ramos cells (Homo sapiens, UniProt P12268); settings: 200 μM, insitu
[3] = molecular target: T2, cysteines in MDA-MB-231 and Ramos cells (Homo sapiens, UniProt Q9NS86); settings: 200 μM, insitu
T2 sequence (Q9NS86 1-450): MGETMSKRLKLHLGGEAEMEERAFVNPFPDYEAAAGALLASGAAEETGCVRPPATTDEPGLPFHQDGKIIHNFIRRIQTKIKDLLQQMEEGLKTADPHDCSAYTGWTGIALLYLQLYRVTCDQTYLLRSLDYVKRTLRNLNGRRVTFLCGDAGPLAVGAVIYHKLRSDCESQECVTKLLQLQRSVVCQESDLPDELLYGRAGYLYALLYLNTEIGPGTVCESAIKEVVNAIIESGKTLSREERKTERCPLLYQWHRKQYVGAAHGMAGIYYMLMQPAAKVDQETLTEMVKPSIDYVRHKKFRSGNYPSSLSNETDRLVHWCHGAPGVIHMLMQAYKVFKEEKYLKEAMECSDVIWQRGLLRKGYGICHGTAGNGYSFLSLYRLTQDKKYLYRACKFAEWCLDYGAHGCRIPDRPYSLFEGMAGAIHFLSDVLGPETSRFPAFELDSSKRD

[4] = molecular target: T3, cysteines in MDA-MB-231 and Ramos cells (Homo sapiens, UniProt P24752); settings: 200 μM, insitu
T3 sequence (P24752 34-427): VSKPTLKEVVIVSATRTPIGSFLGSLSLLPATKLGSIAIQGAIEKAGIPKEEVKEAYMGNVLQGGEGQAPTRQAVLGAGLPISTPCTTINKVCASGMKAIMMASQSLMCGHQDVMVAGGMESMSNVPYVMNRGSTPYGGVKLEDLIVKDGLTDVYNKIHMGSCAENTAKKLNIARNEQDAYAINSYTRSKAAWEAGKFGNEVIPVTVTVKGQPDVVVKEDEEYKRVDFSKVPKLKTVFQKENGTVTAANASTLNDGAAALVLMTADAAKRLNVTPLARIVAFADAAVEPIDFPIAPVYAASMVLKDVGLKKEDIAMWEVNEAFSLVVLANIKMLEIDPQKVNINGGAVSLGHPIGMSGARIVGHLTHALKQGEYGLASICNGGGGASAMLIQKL

[5] = molecular target: T4, cysteines in MDA-MB-231 and Ramos cells (Homo sapiens, UniProt Q13155); settings: 200 μM, insitu
T4 sequence (Q13155 1-320): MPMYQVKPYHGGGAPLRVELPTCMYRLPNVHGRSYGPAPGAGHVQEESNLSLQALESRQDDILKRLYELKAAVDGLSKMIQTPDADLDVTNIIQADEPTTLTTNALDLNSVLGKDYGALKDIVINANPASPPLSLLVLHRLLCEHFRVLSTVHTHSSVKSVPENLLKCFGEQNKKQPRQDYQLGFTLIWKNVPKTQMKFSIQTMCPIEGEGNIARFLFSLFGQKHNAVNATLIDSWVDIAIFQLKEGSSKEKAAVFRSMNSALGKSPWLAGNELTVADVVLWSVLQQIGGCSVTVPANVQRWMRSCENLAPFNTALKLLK

[6] = molecular target: cysteines in MDA-MB-231 and Ramos cells (Homo sapiens, UniProt Q9ULV4); settings: 200 μM, insitu
[7] = molecular target: T5, cysteines in MDA-MB-231 and Ramos cells (Homo sapiens, UniProt O14879); settings: 200 μM, insitu, 231
T5 sequence (O14879 1-490): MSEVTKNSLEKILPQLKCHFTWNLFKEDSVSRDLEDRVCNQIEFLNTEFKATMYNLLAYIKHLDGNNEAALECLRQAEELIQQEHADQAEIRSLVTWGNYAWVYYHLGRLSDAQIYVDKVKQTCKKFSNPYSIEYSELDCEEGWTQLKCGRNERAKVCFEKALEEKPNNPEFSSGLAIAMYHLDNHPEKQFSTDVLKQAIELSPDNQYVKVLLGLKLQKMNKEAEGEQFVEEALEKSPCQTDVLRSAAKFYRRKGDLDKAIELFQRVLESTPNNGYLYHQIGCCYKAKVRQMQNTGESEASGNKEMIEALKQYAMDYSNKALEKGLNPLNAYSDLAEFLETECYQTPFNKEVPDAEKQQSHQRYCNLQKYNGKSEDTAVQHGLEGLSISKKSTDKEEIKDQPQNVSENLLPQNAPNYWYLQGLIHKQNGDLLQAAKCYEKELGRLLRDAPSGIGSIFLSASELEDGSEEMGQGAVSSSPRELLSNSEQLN

[8] = molecular target: cysteines in MDA-MB-231 and Ramos cells (Homo sapiens, UniProt Q15021); settings: 200 μM, insitu
Sequence of cysteines in MDA-MB-231 and Ramos cells (Homo sapiens, UniProt Q15021) (Q15021 whole entry): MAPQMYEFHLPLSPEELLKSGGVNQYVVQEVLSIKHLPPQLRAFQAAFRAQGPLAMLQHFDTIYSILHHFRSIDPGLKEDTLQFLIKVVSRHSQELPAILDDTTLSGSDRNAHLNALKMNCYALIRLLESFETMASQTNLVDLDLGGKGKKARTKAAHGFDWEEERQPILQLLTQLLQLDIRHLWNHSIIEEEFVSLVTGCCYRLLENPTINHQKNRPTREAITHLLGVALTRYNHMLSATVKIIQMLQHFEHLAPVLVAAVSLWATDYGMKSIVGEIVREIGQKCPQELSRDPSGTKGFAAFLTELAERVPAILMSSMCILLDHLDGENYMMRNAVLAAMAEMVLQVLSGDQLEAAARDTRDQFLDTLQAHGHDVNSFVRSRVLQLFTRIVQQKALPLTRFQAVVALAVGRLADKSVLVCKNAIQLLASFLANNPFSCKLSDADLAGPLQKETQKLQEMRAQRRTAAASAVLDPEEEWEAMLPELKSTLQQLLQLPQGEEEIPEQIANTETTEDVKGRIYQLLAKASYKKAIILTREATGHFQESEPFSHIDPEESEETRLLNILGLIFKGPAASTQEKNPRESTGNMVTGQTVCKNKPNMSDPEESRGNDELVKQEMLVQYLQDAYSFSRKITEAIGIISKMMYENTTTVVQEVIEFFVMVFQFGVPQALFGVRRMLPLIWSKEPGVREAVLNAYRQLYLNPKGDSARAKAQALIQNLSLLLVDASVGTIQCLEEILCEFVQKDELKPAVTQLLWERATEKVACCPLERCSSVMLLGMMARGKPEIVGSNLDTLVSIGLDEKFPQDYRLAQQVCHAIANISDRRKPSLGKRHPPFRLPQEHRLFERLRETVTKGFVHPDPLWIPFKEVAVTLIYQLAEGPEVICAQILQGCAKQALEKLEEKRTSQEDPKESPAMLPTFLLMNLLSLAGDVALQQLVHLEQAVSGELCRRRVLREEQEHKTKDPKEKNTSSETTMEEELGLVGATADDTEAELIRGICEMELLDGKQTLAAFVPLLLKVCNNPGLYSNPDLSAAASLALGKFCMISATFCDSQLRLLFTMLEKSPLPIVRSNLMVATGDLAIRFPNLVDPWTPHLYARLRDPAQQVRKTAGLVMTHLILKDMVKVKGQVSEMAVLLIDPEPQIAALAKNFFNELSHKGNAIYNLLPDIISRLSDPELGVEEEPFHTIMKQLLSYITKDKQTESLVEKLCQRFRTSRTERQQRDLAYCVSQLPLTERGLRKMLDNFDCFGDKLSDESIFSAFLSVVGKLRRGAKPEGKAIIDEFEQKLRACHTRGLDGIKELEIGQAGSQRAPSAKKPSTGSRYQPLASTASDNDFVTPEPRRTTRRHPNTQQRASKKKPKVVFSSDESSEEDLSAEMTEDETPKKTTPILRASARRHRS

Sequence of cysteines in MDA-MB-231 and Ramos cells (Homo sapiens, UniProt Q9ULV4) (Q9ULV4 whole entry): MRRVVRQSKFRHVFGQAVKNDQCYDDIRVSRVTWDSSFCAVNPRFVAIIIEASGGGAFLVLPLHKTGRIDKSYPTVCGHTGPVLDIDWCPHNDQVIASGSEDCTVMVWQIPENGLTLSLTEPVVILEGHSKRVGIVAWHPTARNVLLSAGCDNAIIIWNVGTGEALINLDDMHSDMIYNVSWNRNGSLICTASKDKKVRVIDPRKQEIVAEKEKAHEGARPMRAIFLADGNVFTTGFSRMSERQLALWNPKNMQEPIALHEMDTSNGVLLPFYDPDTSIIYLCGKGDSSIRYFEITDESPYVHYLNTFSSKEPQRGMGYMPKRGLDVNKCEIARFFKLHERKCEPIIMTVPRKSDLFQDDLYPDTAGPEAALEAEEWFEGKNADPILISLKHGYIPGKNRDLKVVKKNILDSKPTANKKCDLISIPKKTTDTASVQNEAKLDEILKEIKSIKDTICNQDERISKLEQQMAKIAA

SMILES | isoTOP-ABPP ratio Q96CM8_C64 [1]; 231 | isoTOP-ABPP ratio P12268_C140 [2]; 231 | isoTOP-ABPP ratio P12268_C331 ([2]; ramos) | isoTOP-ABPP ratio Q9NS86_C187 [3]; 231 | isoTOP-ABPP ratio Q9NS86_C187 ([3]; ramos) | isoTOP-ABPP ratio P24752_C119 [4]; 231 | isoTOP-ABPP ratio P24752_C413 [4]; 231 | isoTOP-ABPP ratio P24752_C119 ([4]; ramos) | isoTOP-ABPP ratio P24752_C413 ([4]; ramos) | isoTOP-ABPP ratio Q13155_C23 [5]; 231 | isoTOP-ABPP ratio Q9ULV4_C420 [6]; 231 | isoTOP-ABPP ratio O14879_C343 [7] | isoTOP-ABPP ratio P12268_C331 [2]; 231 | isoTOP-ABPP ratio Q13155_C291 [5]; 231 | isoTOP-ABPP ratio Q15021_C439 [8]; 231 | also measured
O=C(CCl)NCCc1c[nH]c2ccccc12 [compound 13] | 1.4 | 0.7 | 1.4 | 1.0 | 1.1 | 2.1 | 3.5 | 2.8 | 20.0 | 0.9 | 1.1 | 1.0 | – | – | – | isoTOP-ABPP ratio Q9ULV4_C420 ([6]; ramos): 1.1
COc1ccccc1OCCNC(=O)CCl [compound 28] | – | 0.6 | – | – | – | 1.0 | 1.0 | – | – | – | 0.7 | 0.7 | 0.8 | 0.9 | 0.9 | isoTOP-ABPP ratio, P24752_C126 [4]; 231: 1.2
O=C(CCl)N1CCN(CC(=O)N2CCOCC2)CC1 [compound 29] | – | – | 1.3 | – | 1.7 | – | – | 1.2 | 1.2 | – | – | – | – | – | – | isoTOP-ABPP ratio Q96CM8_C64 ([1]; ramos): 2.3; isoTOP-ABPP ratio P12268_C140 ([2]; ramos): 1.6; isoTOP-ABPP ratio, P24752_C126 ([4]; ramos): 1.2; isoTOP-ABPP ratio, P24752_C196 ([4]; ramos): 1.1; isoTOP-ABPP ratio Q13155_C23 ([5]; ramos): 1.6; isoTOP-ABPP ratio Q15021_C439 ([8]; ramos): 1.4
C=CC(=O)Nc1cc(F)c(N2CCN(C(=O)OC(C)(C)C)CC2)c(F)c1 [compound 38] | 1.1 | 1.2 | – | 2.0 | – | 1.2 | 1.1 | – | – | 1.4 | 1.4 | – | 1.3 | 1.7 | 1.1 | isoTOP-ABPP ratio, P24752_C196 [4]; 231: 1.0
CC1CCc2ccccc2N1C(=O)CCl (centres unmarked) [compound 45] | 20.0 | 1.9 | – | 3.1 | – | 12.4 | 20.0 | – | – | 4.4 | 3.2 | 4.0 | 4.1 | 7.3 | – | –
O=C(CCl)Nc1cccc2ncccc12 [compound 51] | – | 1.0 | – | 2.0 | – | 0.7 | 1.1 | – | – | 1.2 | 1.1 | 1.3 | – | 1.1 | 1.1 | –

From US10670605B2, “Cysteine reactive probes and uses thereof” (The Scripps Research Institute, priority 2015, dated 2020)
